Assay results reported in US9663478B2, “Benzotriazine oxides as drugs targeting Mycobacterium tuberculosis” (priority 2011, dated 2017).
Converted amounts (≈) assume the structure as drawn.

How the values were obtained:
Mtb H37Rv [1] = assay: TB MIC - SRI, resazurin-based microplate assay; assay type: cell-based, Mycobacterium tuberculosis; conditions: Mycobacterium tuberculosis, H37RV
Mtb H37Rv [2] = assay: TB MIC - ITR (UIC), Institute for Tuberculosis Research; assay type: cell-based, Mycobacterium tuberculosis; conditions: for MIC: Mycobacterium tuberculosis, H37RV, Tables 1-4, read-out: TB MIC - ITR
NRP Mtb H37Rv cells = assay: Low-oxygen recovery assay (LORA) MIC; assay type: cell-based, Mycobacterium tuberculosis; conditions: for MIC: Mycobacterium tuberculosis, H37RV, NRP Mtb, Tables 1-4 and text, read-out: LORA MIC - ITR
Vero cells = conditions: African green monkey, 72 h
[3] = Tables 1-4 and text, read-out: TB MIC - SRI
[4] = Tables P1-P3, read-out: TB MIC - SRI
[5] = read-out: Activity against H37Rv, Table P4
[6] = read-out: TB MIC - SRI, Tables P1-P3

SMILES: CCNc1n[n+]([O-])c2cc(Cl)ccc2[n+]1[O-] [Compound 15ba, 7-chloro-3-(ethylamino)benzo[e][1,2,4]triazine 1,4-dioxide]
- MIC (Mtb H37Rv [1]; [3]): 1.2 µg/mL (≈ 4.99 µM)
- MIC (Mtb H37Rv [2]): < 0.12 µg/mL
- MIC (NRP Mtb H37Rv cells): 0.41 µg/mL (≈ 1.7 µM)
- Vero Tox CC50 (Vero cells): 2.6 µg/mL

SMILES: [O-][n+]1nc(NC2CC2)[n+]([O-])c2ccc(Cl)cc21 [Compound 15bb, 7-chloro-3-(cyclopropylamino)benzo[e][1,2,4]triazine 1,4-dioxide]
- MIC (Mtb H37Rv [1]; [3]): 0.62 µg/mL (≈ 2.45 µM)
- MIC (Mtb H37Rv [2]): 0.21 µg/mL (≈ 0.831 µM)
- MIC (NRP Mtb H37Rv cells): 0.22 µg/mL (≈ 0.871 µM)
- Vero Tox CC50 (Vero cells): 1.3 µg/mL

SMILES: [O-][n+]1nc(NC2CCCCC2)[n+]([O-])c2ccc(Cl)cc21 [Compound 15bf, 7-chloro-3-(cyclohexylamino)benzo[e][1,2,4]triazine 1,4-dioxide]
- MIC (Mtb H37Rv [1]; [3]): 0.62 µg/mL (≈ 2.1 µM)
- MIC (Mtb H37Rv [2]): 0.94 µg/mL (≈ 3.19 µM)
- MIC (NRP Mtb H37Rv cells): 0.63 µg/mL (≈ 2.14 µM)
- Vero Tox CC50 (Vero cells): 2.6 µg/mL

SMILES: CCNc1n[n+]([O-])c2cc(OC)ccc2[n+]1[O-] [Compound 15da, 3-(ethylamino)-7-methoxybenzo[e][1,2,4]triazine 1,4-dioxide]
- MIC (Mtb H37Rv [1]; [3]): 2.5 µg/mL (≈ 10.6 µM)
- MIC (Mtb H37Rv [2]): 15 µg/mL (≈ 63.5 µM)
- MIC (NRP Mtb H37Rv cells): 16 µg/mL (≈ 67.7 µM)

SMILES: Cc1cccc2c1[n+]([O-])c(NC1CCCC1)n[n+]2[O-] [Compound 15ee, 3-(cyclopentylamino)-5-methylbenzo[e][1,2,4]triazine 1,4-dioxide]
- MIC (Mtb H37Rv [1]; [3]): 0.31 µg/mL (≈ 1.19 µM)
- MIC (Mtb H37Rv [2]): 0.43 µg/mL (≈ 1.65 µM)
- MIC (NRP Mtb H37Rv cells): 0.27 µg/mL (≈ 1.04 µM)

SMILES: CCNc1n[n+]([O-])c2cc(C)c(OC)cc2[n+]1[O-] [Compound 15ga, 3-(ethylamino)-6-methoxy-7-methylbenzo[e][1,2,4]triazine 1,4-dioxide]
- MIC (Mtb H37Rv [1]; Table 5, read-out: MIC, H37Rv): 1.2 µg/mL (≈ 4.8 µM)
- MIC (Mtb H37Rv [1]; [3]): 2.5 µg/mL (≈ 9.99 µM)
- MIC (Mtb H37Rv [2]): 3.5 µg/mL (≈ 14 µM)
- Vero Tox CC50 (Vero cells): >100 µg/mL

SMILES: [O-][n+]1nc(N2CCCC2)[n+]([O-])c2ccccc21 [Compound 17q, 3-(pyrrolidin-1-yl)benzo[e][1,2,4]triazine 1,4-dioxide]
- MIC (Mtb H37Rv [1]; Table 5, read-out: MIC, H37Rv): 0.31 µg/mL (≈ 1.33 µM)
- Vero Tox CC50 (Vero cells): 17 µg/mL

SMILES: CN(Cc1ccccc1)c1n[n+]([O-])c2cc3c(cc2[n+]1[O-])CCC3 [Compound 20t, 3-(benzyl(methyl)amino)-7,8-dihydro-6H-indeno[5,6-e][1,2,4]triazine 1,4-dioxide]
- MIC (Mtb H37Rv [1]; Table 5, read-out: MIC, H37Rv): 0.31 µg/mL (≈ 0.962 µM)
- MIC (NRP Mtb H37Rv cells): 0.41 µg/mL (≈ 1.27 µM)
- Vero Tox CC50 (Vero cells): 17 µg/mL

SMILES: CCNc1n[n+]([O-])c2cc(OC)ccc2[n+]1[O-] [SRI-012285]
- TB MIC - UIC (Mtb H37Rv [2]; Tables P1, P2): 15.1 µg/mL
- LORA MIC (NRP Mtb H37Rv cells; Tables P1, P2, non-replicating M. tuberculosis): 16.2 µg/mL
- VERO Tox-SRI (Vero cells): 15.8

SMILES: [O-][n+]1nc(NC2CCC2)[n+]([O-])c2cc3c(cc21)CCC3 [SRI-012403]
- MIC (Mtb H37Rv [1]; [4]): 0.625 µg/mL (≈ 2.3 µM)
- VERO Tox-SRI (Vero cells): 33.6

SMILES: Cc1cc2c(cc1C)[n+]([O-])c(NC1CCC1)n[n+]2[O-] [SRI-012459]
- MIC (Mtb H37Rv [1]; [4]): 0.625 µg/mL (≈ 2.4 µM)
- VERO Tox-SRI (Vero cells): 21.8

SMILES: Cc1cccc2c1[n+]([O-])c(NC1CCC1)n[n+]2[O-] [SRI-012460]
- MIC (Mtb H37Rv [1]; [4]): 0.312 µg/mL (≈ 1.27 µM)
- VERO Tox-SRI (Vero cells): 21.8

SMILES: COc1ccc2c(c1)[n+]([O-])nc(NC1CCC1)[n+]2[O-] [SRI-012463]
- MIC (Mtb H37Rv [1]; [4]): 0.625 µg/mL (≈ 2.38 µM)
- VERO Tox-SRI (Vero cells): 9.85

SMILES: [O-][n+]1nc(N[C@@H]2C[C@H]3CC[C@@H]2C3)[n+]([O-])c2ccc(Br)cc21 [SRI-012467]
- MIC (Mtb H37Rv [1]; [4]): 0.312 µg/mL (≈ 0.888 µM)
- VERO Tox-SRI (Vero cells): 0.81

SMILES: CCNc1n[n+]([O-])c2cc(C)c(OC)cc2[n+]1[O-] [SRI-012468]
- VERO Tox-SRI (Vero cells): 100

SMILES: COc1cc2c(cc1C)[n+]([O-])nc(NC1CCC1)[n+]2[O-] [SRI-012469]
- VERO Tox-SRI (Vero cells): 50

SMILES: COc1cc2c(cc1C)[n+]([O-])nc(N[C@@H]1C[C@H]3CC[C@@H]1C3)[n+]2[O-] [SRI-012470]
- VERO Tox-SRI (Vero cells): 50

SMILES: Cc1cccc2c1[n+]([O-])c(NC1CCCC1)n[n+]2[O-] [SRI-012473]
- MIC (Mtb H37Rv [1]; [4]): 0.312 µg/mL (≈ 1.2 µM)
- VERO Tox-SRI (Vero cells): 3.7

SMILES: CCNc1n[n+]([O-])c2cc3c(cc2[n+]1[O-])CCCC3 [SRI-012496]
- MIC (Mtb H37Rv [1]; [5]): 1.25 µg/mL (≈ 4.8 µM)
- MIC (Mtb H37Rv [1]; [6]): 1.25 µg/mL (≈ 4.8 µM)
- VERO Tox-SRI (Vero cells): 21.78

SMILES: [O-][n+]1nc(NC2CCC2)[n+]([O-])c2cc3c(cc21)CCCC3 [SRI-012497]
- MIC (Mtb H37Rv [1]; [5]): 1.25 µg/mL (≈ 4.37 µM)
- MIC (Mtb H37Rv [1]; [6]): 1.25 µg/mL (≈ 4.37 µM)
- VERO Tox-SRI (Vero cells): 50

SMILES: [O-][n+]1nc(NC2CC3CCC2C3)[n+]([O-])c2cc3c(cc21)CCCC3 (stereo not drawn) [SRI-012498]
- MIC (Mtb H37Rv [1]; [5]): 1.25 µg/mL (≈ 3.83 µM)
- MIC (Mtb H37Rv [1]; [6]): 1.25 µg/mL (≈ 3.83 µM)
- VERO Tox-SRI (Vero cells): 50
